# pIC50, pKi: −log10 of the molar value.
# Columns and labels:
# CYP3A4 [1] = target: T1, CYP3A4 (Homo sapiens, UniProt P08684); test: Inhibition of CYP3A4 (testosterone 6β-hydroxylation) in human liver microsomes; assay type: in vitro ADME
# T1 construct: Pooled human liver microsomes (HLMs) were purchased from BD Biosciences; tissue BD Biosciences; host or cells: pooled human liver microsomes
# Procedure: (§1) The effect of pogostone on the activity of CYP450s was investigated with probe reactions (summarized in Table 1) in HLMs in accordance with previous studies (Zhang et al. [2007], [2020]). All incubations were conducted in triplicate with a volume of 200 μL, containing 100 mM potassium phosphate buffer (pH 7.4), NADPH-generating system (1 mM NADP^+, 10 mM glucose-6-phosphate, 1 U/mL of glucose-6-phosphate dehydrogenase, and 4 mM MgCl2), corresponding probe substrates, HLM, and 100 μM pogostone or positive inhibitors. The concentrations of positive inhibitors were: 10 μM furafylline for CYP1A2, 1 μM ketoconazole for CYP3A4, 10 μM tranylcypromine for CYP2A6, 50 μM clomethiazole for CYP2E1, 10 μM quinidine for CYP2D6, 10 μM sulphaphenazole for CYP2C9, 50 μM tranylcypromine for CYP2C19, and 5 μM montelukast for CYP2C8.
# (§2) A 3 min preincubation was performed at 37 °C before the reactions were initiated by the addition of the NADPH-generating system. After the incubation, 100 μL acetonitrile or 10% trichloroacetic (for CYP2A6) was added to terminate the reactions and placed on ice. The mixture was centrifuged at 12,000 rpm for 10 min, and an aliquot (50 μL) of supernatant was transferred for corresponding metabolites analysis with HPLC.
# (§3) The effect of pogostone on the activity of CYP450s was first investigated with 100 μM pogostone in HLMs. Then, the CYPs, of which the activity was inhibited by pogostone were incubated with 0, 2.5, 5, 10, 25, 50, and 100 μM pogostone and different probe substrates (20, 40, 60, and 100 μM testosterone for CYP3A4, 5, 10, 15, and 20 μM diclofenac for CYP2C9, or 25, 50, 150, and 250 μM chlorzoxazone for CYP2E1) to obtained the corresponding kinetic parameters, such as IC50 and Ki values.
# (§4) The Lineweaver-Burk plots were used to obtain enzyme kinetic parameters by the least-squares linear regression of the inverse substrate concentration versus the inverse velocity. Inhibition data from the experiments that were conducted using multiple compound concentrations were represented by Dixon plots, and inhibition constant (Ki) values were calculated using non-linear regression according to the following equation: V=(VmaxS)/(Km(1+I/Ki)+S) where I is the concentration of the compound, Ki is the inhibition constant, S is the concentration of the substrate and Km is the substrate concentration at half the maximum velocity (Vmax) of the reaction. The mechanism of the inhibition was inspected using the Lineweaver–Burk plots and the enzyme inhibition models. The data comparison was performed using the Student’s t-test and performed using IBM SPSS statistics 20 (SPSS Inc., Chicago, IL, USA).
# CYP2C9 [2] = target: T2, CYP2C9 (Homo sapiens, UniProt P11712); test: Inhibition of CYP2C9 (diclofenac 4′-hydroxylation) in human liver microsomes; assay type: in vitro ADME
# T2 construct: Pooled human liver microsomes (HLMs) were purchased from BD Biosciences; tissue BD Biosciences; host or cells: pooled human liver microsomes
# T2 sequence (P11712 whole entry): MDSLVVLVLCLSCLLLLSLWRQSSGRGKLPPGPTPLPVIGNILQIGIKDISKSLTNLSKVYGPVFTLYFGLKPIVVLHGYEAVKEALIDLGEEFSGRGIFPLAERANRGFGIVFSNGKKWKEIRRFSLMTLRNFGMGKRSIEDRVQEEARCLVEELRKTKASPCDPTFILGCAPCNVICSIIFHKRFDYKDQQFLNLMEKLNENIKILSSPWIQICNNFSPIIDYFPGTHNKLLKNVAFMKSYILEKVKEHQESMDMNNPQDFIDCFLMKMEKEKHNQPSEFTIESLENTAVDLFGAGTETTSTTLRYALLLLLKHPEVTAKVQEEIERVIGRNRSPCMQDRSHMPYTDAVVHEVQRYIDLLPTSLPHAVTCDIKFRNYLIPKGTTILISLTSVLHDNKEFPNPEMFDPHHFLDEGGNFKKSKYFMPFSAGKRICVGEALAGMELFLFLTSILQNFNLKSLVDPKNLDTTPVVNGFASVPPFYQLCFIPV
# Procedure: as §1, §2, §3, §4
# CYP2E1 [3] = target: T3, CYP2E1 (Homo sapiens, UniProt P05181); test: Inhibition of CYP2E1 (chlorzoxazone 6-hydroxylation) in human liver microsomes; assay type: in vitro ADME
# T3 construct: Pooled human liver microsomes (HLMs) were purchased from BD Biosciences; tissue BD Biosciences; host or cells: pooled human liver microsomes
# T3 sequence (P05181 whole entry): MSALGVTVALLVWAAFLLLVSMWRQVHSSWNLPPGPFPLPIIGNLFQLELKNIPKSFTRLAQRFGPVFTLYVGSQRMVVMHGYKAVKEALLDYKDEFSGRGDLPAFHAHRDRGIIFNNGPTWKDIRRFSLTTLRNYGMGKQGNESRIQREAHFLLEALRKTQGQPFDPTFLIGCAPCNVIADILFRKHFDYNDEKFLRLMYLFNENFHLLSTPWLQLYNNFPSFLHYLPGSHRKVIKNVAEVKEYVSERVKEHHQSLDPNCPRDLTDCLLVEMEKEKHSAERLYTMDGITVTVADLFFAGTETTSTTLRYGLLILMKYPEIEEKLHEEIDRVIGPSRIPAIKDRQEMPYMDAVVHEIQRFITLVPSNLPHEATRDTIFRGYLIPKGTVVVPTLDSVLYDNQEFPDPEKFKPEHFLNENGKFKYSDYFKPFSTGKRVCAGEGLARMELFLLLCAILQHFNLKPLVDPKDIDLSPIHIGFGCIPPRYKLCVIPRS
# Procedure: as §1, §2, §3, §4
# CYP3A4 [4] = target: T1, CYP3A4; test: Time-dependent inhibition study of CYP3A4 in human liver microsomes; assay type: in vitro ADME
# Procedure: (§5) The effect of incubation on the inhibitory effect of pogostone was evaluated by incubating for 0, 5, 10, 15, and 30 min at 37 °C. The concentration of pogostone in the time-dependent inhibition study was 20 μM with the 1 mg/mL HLMs. After incubation, an aliquot (20 μL) was transferred to another incubation tube (a final volume of 200 μL) containing an NADPH-generating system and probe substrates whose final concentrations were approximate to Km. Then, further incubations were performed to measure the residual activity. After being incubated for 10 and 30 min, the reactions were terminated by adding a 100 μL acetonitrile internal standard mix and then placed on ice; the corresponding metabolites were determined by HPLC.
# Further experiments were performed to quantify the time-dependent inhibition by the KI and Kinact values. The incubation was conducted with a higher substrate concentration, which was about 4-fold to Km and 0, 2, 5, 10, 20, and 50 μM pogostone for 0, 5, 10, 15, and 30 min. A two-step incubation scheme was performed as described above.
# CYP2C9 [5] = target: T2, CYP2C9; test: Time-dependent inhibition study of CYP2C9 in human liver microsomes; assay type: in vitro ADME; conditions: 20 μM pogostone, 0-30 min, 1 mg/mL HLMs
# Procedure: as §5
# CYP2E1 [6] = target: T3, CYP2E1; test: Time-dependent inhibition study of CYP2E1 in human liver microsomes; assay type: in vitro ADME; conditions: 20 μM pogostone, 0-30 min, 1 mg/mL HLMs
# Procedure: as §5
# [7] = set-up: method as in Chen et al. [2013]; conditions: rats, oral administration, 5 mg/kg pogostone; ref Chen et al. [2013]; cited from earlier work
# [8] = 100 μM pogostone, HLMs, p < 0.05
# [9] = HLMs, 0-50 μM pogostone, 0-30 min preincubation, substrate about 4-fold Km
# T1 sequence (P08684 whole entry): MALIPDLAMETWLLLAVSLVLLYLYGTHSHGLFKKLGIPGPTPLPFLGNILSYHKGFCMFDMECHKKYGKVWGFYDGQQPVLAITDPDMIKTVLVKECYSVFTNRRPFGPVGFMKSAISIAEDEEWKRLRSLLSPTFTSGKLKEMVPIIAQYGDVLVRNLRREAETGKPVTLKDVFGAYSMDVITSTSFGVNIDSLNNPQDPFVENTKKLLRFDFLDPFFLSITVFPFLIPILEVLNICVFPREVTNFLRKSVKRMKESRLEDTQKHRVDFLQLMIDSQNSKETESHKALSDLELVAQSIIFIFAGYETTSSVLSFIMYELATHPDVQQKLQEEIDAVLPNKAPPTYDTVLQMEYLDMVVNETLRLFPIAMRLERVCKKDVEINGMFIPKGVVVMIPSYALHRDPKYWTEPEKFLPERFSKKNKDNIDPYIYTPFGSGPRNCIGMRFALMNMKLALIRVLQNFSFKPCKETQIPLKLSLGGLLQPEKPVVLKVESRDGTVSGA
smiles,measurement,setting,value
"Cc1cc(O)c(C(=O)CCC(C)C)c(=O)o1 [pogostone, Pogostone]",Activity of CYP3A4 compared with negative control,CYP3A4 [1]; [8],significantly inhibited
same,pIC50,"CYP3A4 [1]; HLMs, 0-100 μM pogostone, testosterone substrate",4.94
same,pKi,"CYP3A4 [1]; HLMs, Lineweaver-Burk, 20-100 μM testosterone",5.24
same,Type of inhibition of CYP3A4,CYP3A4 [1]; Lineweaver-Burk analysis,non-competitive
same,Activity of CYP2C9 compared with negative control,CYP2C9 [2]; [8],significantly inhibited
same,pIC50,"CYP2C9 [2]; HLMs, 0-100 μM pogostone, diclofenac substrate",4.92
same,pKi,"CYP2C9 [2]; HLMs, Lineweaver-Burk, diclofenac",5.19
same,Type of inhibition of CYP2C9,CYP2C9 [2]; Lineweaver-Burk analysis,competitive
same,Activity of CYP2E1 compared with negative control,CYP2E1 [3]; [8],significantly inhibited
same,pIC50,"CYP2E1 [3]; HLMs, 0-100 μM pogostone, chlorzoxazone substrate",4.83
same,pKi,"CYP2E1 [3]; HLMs, Lineweaver-Burk, 25-250 μM chlorzoxazone",5.12
same,Type of inhibition of CYP2E1,CYP2E1 [3]; Lineweaver-Burk analysis,competitive
same,Effect of incubation time on inhibition of CYP3A4,"CYP3A4 [4]; 20 μM pogostone, 0-30 min, 1 mg/mL HLMs",time-dependent
same,KI value of CYP3A4 (time-dependent inhibition),CYP3A4 [4]; [9],5.86 µM
same,Kinact value of CYP3A4 (time-dependent inhibition),CYP3A4 [4]; [9],0.056 min⁻¹
same,Effect of incubation time on inhibition of CYP2C9,CYP2C9 [5],no significant effect
same,Effect of incubation time on inhibition of CYP2E1,CYP2E1 [6],no significant effect
same,Cmax,[7],28990 ng/mL

# From publication PMC8871619, “Pogostone inhibits the activity of CYP3A4, 2C9, and 2E1 in vitro” (Pharmaceutical Biology, 2021)
